{"source": "patent US20250073234A1", "about": "“COMBINATION THERAPIES INCLUDING PARP1 INHIBITORS” (Cornell University, priority 2022, published 2025)", "key": {"[1]": {"test_system": "p62 (SQSTM1) in WPMY-1 cells", "test": "p62/SQSTM1 expression in WPMY-1 stromal fibroblasts (immunoblot, qPCR)", "type": "cell-based, human", "text": "To knock out PARP-1 in WPMY-1 cells, single-guide RNA sequences targeting PARP-1 exon2 were purchased from Synthego and transduced into WPMY-1 cells with recombinant Streptococcus pyogenes Cas9 protein (Truecut Cas9 Protein v2, Thermo), using the Neon Transfection System 1 (Invitrogen) following the manufacturer's protocol and single clones were expanded and screened by protein immunoblotting. To perform AP1-A binding site editing in the SQSTM promoter in WPMY-1 cells, single-guide RNA sequences targeting the human AP1-A binding site (Synthego) was transduced into cells with a Cas9 protein and a single-stranded donor oligonucleotide (ssODN, IDT) using Neon Electroporation System. Single clones were expanded and screened for AP1-A editing by Sanger sequencing. A point mutation to disrupt the API enhancer element in the p62 promoter was introduced by Site Directed Mutagenesis (Stratagene). Knockdown of MCT1, MCT4, FOS, PARP1, PARP2, CD38, ATG5, and SIRT1-7 genes in WPMY-1 cells were achieved by siRNA transfection using Lipofectamine RNAiMAX Transfection Reagent (Invitrogen). Transient overexpression was achieved by transfection using X-tremeGENE HP transfection reagent (Roche). Transfected cells were examined 48 hours after transfection. Establishing stably GFP or RFP expressing cells was achieved by lentivirus-mediated transduction. Lentivirus were produced in HEK293T cells using X-tremeGENE HP transfection reagent (Roche). Virus-containing supernatants were collected 48, 72 and 96 hours after transfection, filtered to eliminate cells, and supplemented with 8 μg/ml polybrene. Cells were infected with three rounds of viral supernatants and selected with puromycin (3 μg/ml). For autophagy or proteasome inhibition, WPMY-1 cells were treated for 12 hours with 100 nM bafilomycin Al or 12 hours with 20 μM of MG132, respectively, or vehicle (DMSO). […] For MCT1 inhibition, WPMY-1 cells were treated for 48 hours with 10 μM of AZD3965. For cJUN inhibition, WPMY-1 cells were treated for 48 hours with 10 μM of SP600125. For calpains and caspases inhibition, WPMY-1 cells were treated for 48 hours with 1-20 μM of Calpeptin (Tocris) or z-VAD-FMK (Tocris), respectively. For protein synthesis inhibition, WPMY-1 cells were treated with 50 μg/ml of cycloheximide (Sigma). Conditioned media (CM) was generated by collecting supernatant on day 3. CM was transferred to a 15 ml BD Falcon tube and centrifuged at 1300 rpm for 10 minutes. The supernatant was sterile filtered using a […] (Millex-GV) with a 10 ml syringe barrel. The samples were stored at […] for future experiments. Fractionation of the CM was achieved using Amicon Ultra centrifugal filters (3KUltracel, Millipore). The supernatant was centrifuged at 4000 rpm for 1 hour. The supernatant fraction that was >3 kDa remained above the filter and that which was <3 kDa passed through to the lower chamber. The >3-kDa fraction was resuspended in DMEM to the pre-filtration volume."}, "[2]": {"test_system": "p62 in prostate, lung, breast and endometrial primary fibroblasts", "test": "p62 immunoblot in primary fibroblasts of different tissue origins", "type": "cell-based", "conditions": "Olaparib 20 μM, 4 days", "method": "Cells for protein analysis were lysed in RIPA buffer (20 mM Tris-HCl, […], 2 mM EDTA, 1% Triton-X, 10% glycerol, 0.1% SDS, and 0.5% sodium deoxycholate) with phosphatase and protease inhibitors. For immunoprecipitations, cells were lysed in IP lysis buffer (100 mM NaCl, 25 mM Tris, 1% Triton-X, 10% glycerol, with phosphatase and protease inhibitors) and immunoprecipitated with 25 μl of 50% slurry of protein […] beads (Bioworld). Immunoprecipitates were washed three times with lysis buffer, once with high salt (500 mM NaCl), and once more with lysis buffer. Protein concentration in lysates was determined by using Protein Assay Kit (Bio-Rad). Cell extracts and immunoprecipitated proteins were denatured, subjected to SDS-PAGE, transferred to PVDF membranes (GE Healthcare). After blocking with 5% nonfat dry milk in Tris-buffered saline and 0.1% Tween (TBS-T), the membranes were incubated with the specific antibodies (as listed in Key Resources Table) overnight at 4° C. After 2 hours incubation with the appropriate horseradish peroxidase-conjugated antibodies, the immune complexes were detected by chemiluminescence (Thermo Scientific) or Near-infrared fluorescence (LI-COR)."}, "[3]": {"test_system": "prostate cancer bone metastasis", "test": "Paired biopsies of bone metastasis from a mCRPC patient, IHC for HA", "type": "in vivo, human"}, "PC3 + WPMY-1 tumors": {"test_system": "PC3 + WPMY-1 tumors", "test": "Subcutaneous xenograft co-implantation of PC3 and WPMY-1 cells in NSG mice", "type": "in vivo, mouse", "conditions": "Olaparib 40 mg/kg i.p. twice a week, 2 weeks", "method": "For mouse xenografts using PC3 PCa cells and sgC or sgAP-1 WPMY-1 stromal cells. 7 weeks old NSG mice were surgical castrated and let androgen levels drop for 10 days. Cells were trypsinized washed two times in PBS and resuspend in DMEN. 1×10^6 PC3 and 1×10^6 sgC or sgAP1-A WPMY-1 for each mouse were resuspended in 100 μl DMEM: Matrigel (1:1) and injected subcutaneously into both flanks of immunocompromised NSG mice (PC3+sgC WPMY-1 n=4; PC3+sgAP-1 WPMY-1 n=4). Tumors were allowed to grow for 1 month. Mice were euthanized and tumors were collected and analyzed histologically. For Olaparib treatment in mouse xenografts. PC3 PCa cells and WPMY-1 stromal cells were trypsinized washed two times in PBS and resuspend in DMEN. 1×10^6 PC3 and 1×10^6 WPMY-1 for each mouse were resuspended in 100 μl DMEM: Matrigel (1:1) and injected subcutaneously into both flanks of immunocompromised NSG mice. Tumors were allowed to grow for 14 days, and mouse were randomly divided to receive vehicle, n=10, Olaparib (40 mg/kg, 2 days each week, i.p.), n=10 or Olaparib (40 mg/kg, 2 days each week, i.p.)+_PEGPH20 (0.0375 mg/Kg, 2 days each week, retroorbital injection) n=10. Tumors were measured twice a week. Mice were euthanized 14 days after the initiation of the treatment and tumors were collected and analyzed histologically. For Olaparib treatment in mice, 13 weeks-old male TRAMP^+, n=18, were randomly distributed to receive vehicle, n=9, or Olaparib (40 mg/kg/, 5 days each week, i.p.), n=9. Mice were euthanized 1 month after the initiation of the treatment. Prostate and other organs were collected and analyzed histologically.\nTissues from indicated mice were isolated, fixed in zinc buffered formalin overnight at 4° C., dehydrated, and embedded in paraffin. Sections (5 μm) were stained with hematoxylin and eosin (H&E). For immunohistochemistry, sections were deparaffinized, rehydrated, and then treated for antigen retrieval. […] Stained sections were analyzed with a Zeiss light microscope supplemented with Zen 3.3 Bule edition software."}}, "note": "Read-outs that look alike come from different tables or passages of the source.", "data": [{"compound": "NC(=O)c1ccc[n+]([C@@H]2O[C@H](COP(=O)([O-])OP(=O)(O)OC[C@H]3O[C@@H](n4cnc5c(N)ncnc54)[C@H](O)[C@@H]3O)[C@@H](O)[C@H]2O)c1", "note": "[NAD^+]", "values": [{"measurement": "rescue of lactate-induced reduction in p62", "setting": "[1]; lactate-treated WPMY-1 cells, 48 h, NAD 150 μM, NR 200 μM", "value": "completely rescued the lactate-induced reduction in p62"}]}, {"compound": "O=C(c1cc(Cc2n[nH]c(=O)c3ccccc23)ccc1F)N1CCN(C(=O)C2CC2)CC1", "note": "[Olaparib]", "values": [{"measurement": "p62 expression", "setting": "[2]", "value": "downregulated p62 expression"}, {"measurement": "HA deposition in bone metastasis, pre- vs post-treatment", "setting": "[3]", "value": "increased HA deposition"}, {"measurement": "HA deposition in bone metastasis, pre- vs post-treatment", "setting": "[3]; listed as Ola", "value": "robust increase in HA deposition"}, {"measurement": "SQSTM1 mRNA levels", "setting": "[1]; WPMY-1 cells, basal and ADT conditions", "value": "reduced SQSTM1 mRNA levels"}, {"measurement": "p62 expression (protein, SQSTM1 mRNA)", "setting": "[1]; WPMY-1 cells, PJ34 24 h, Olaparib 48 h", "value": "reduced the expression of p62 in a dose-dependent manner"}, {"measurement": "desmoplastic response (collagen, HA, aSMA, p62)", "setting": "PC3 + WPMY-1 tumors", "value": "strong desmoplastic response"}, {"measurement": "tumor growth (weight, volume)", "setting": "PC3 + WPMY-1 tumors", "value": "efficiently reduced tumor growth"}]}]}
